Laboratory results taken from patent US5935959A, “Piperazine derivatives and use as cysteine inhibitors” (Senju Pharmaceutical Co., Ltd., priority 1995, dated 1999).
Read-outs that look alike come from different tables or passages of the source.

Tests used:
Format in all cases: biochemical
trypsin = assay: Assay of Trypsin-Inhibitory Activity (casein degradation); details: read-out: Trypsin 50% Inhibitory concentration (IC50); casein substrate, pH 8.0, 60 min, 30° C.
Description: (§1) The activity of papain which is a cysteine protease and of trypsin (Sigma) which is a serine protease was assayed in accordance with the method described in the literature [Anal. Biochem., 208, 387-392, 1993]. Thus, to a solution containing 0.5 mg/ml casein, 50 mM Tris-HCl (pH 8.0), 20 mM dithiothreitol, and 0.2 mM EDTA was added 2.5 μl of dimethyl sulfoxide containing a varying concentration of the test drug as well as 0.03 unit of papain or trypsin to initiate the reaction. The final liquid volume was adjusted to 250 μl. After 60 minutes of reaction at 30° C., 100 μl of the reaction mixture was transferred to another vessel and following addition of 50 μl of purified water and 100 μl of 50% Coumassie brilliant blue solution, the mixture was allowed to stand at room temperature for 15 minutes. The absorbance of the mixture was then measured at 595 nm. Using the value found similarly by adding 2.5 μl of dimethyl sulfoxide not containing the test drug as control and the value found without addition of the enzyme as blank, IC50 was determined in the same manner as above. E64 and leupeptin were used as reference drugs.

μ-calpain = biological target: T1, μ-calpain (Homo sapiens, UniProt P07384); assay: Assay of μ-Calpain-Inhibitory Activity (casein degradation); details: casein substrate, pH 7.4, 60 min, 30° C.
T1 construct: purchased Nakarai Tesque
T1 sequence (P07384 1-714): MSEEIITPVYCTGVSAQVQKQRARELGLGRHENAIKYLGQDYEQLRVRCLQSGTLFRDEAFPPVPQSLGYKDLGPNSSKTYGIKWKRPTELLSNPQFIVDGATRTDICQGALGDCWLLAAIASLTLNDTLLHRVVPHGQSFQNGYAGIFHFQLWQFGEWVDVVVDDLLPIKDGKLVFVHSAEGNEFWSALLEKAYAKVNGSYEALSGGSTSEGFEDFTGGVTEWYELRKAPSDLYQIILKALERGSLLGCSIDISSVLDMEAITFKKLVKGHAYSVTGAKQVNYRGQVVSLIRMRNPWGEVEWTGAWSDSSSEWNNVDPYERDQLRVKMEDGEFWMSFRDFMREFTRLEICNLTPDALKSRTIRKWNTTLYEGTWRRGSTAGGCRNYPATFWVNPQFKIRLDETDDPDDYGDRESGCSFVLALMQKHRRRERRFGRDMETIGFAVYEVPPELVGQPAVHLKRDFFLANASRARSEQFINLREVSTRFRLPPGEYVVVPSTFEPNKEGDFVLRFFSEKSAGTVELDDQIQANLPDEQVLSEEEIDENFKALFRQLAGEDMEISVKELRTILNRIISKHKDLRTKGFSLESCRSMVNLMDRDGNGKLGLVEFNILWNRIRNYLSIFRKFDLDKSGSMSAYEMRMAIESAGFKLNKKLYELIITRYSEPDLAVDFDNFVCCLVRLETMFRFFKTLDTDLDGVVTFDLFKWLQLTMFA
T1 sequence (P04632 1-268 partner): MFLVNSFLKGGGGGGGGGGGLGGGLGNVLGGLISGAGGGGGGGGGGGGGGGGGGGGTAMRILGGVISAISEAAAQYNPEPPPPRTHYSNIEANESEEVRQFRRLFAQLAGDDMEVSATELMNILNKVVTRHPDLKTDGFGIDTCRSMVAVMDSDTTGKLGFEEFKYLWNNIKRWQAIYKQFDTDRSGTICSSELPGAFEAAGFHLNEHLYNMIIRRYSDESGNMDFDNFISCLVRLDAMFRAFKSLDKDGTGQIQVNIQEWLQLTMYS
Description: The activity of μ-calpain (Nakarai Tesque) was assayed in accordance with the procedure described in the literature [Anal. Biochem., 208, 387-392 (1993)]. Thus, to a solution containing 0.5 mg/ml casein, 50 mM Tris-HCl (pH 7.4), 20 mM dithiothreitol, and 4 mM calcium chloride was added 2.5 μl of a dimethyl sulfoxide solution containing a varying concentration of the test drug as well as 0.03 unit of μ-calpain to initiate the reaction. The final liquid volume was 250 μl. After 60 minutes of reaction at 30° C., 100 μl of the reaction mixture was transferred to another vessel, to which 50 μl of purified water and 100 μl of 50% Coumassie brilliant blue solution were added. The mixture was allowed to stand at room temperature for 15 minutes and the absorbance was measured at 595 nm. As a control, 2.5 μl of dimethyl sulfoxide not containing the test drug was added and the mixture was treated in the same manner as above. The absorbance value thus found was used as the control value. Similarly, the value found by adding 0.2 mM EDTA in lieu of 4 mM aqueous calcium chloride solution was used as the blank value. […] E64 which is a known cysteine protease inhibition compound was used as a reference drug. [formula]

cathepsin L = biological target: T2, cathepsin L (Homo sapiens, UniProt P07711); assay: Assay of Cathepsin L-Inhibitory Activity (Z-Phe-Arg-MCA); details: Z-Phe-Arg-MCA 20 μM, pH 5.5, 20 min, 30° C.
T2 construct: purchased Cosmo Bio
Description: The activity of cathepsinL (Cosmo Bio), a cysteine protease, was assayed by the method described in the literature [Methods in Enzymology, 80, 535-561, 1981]. Thus, to a solution containing 85 mM acetate buffer (pH 5.5), 2 mM dithiothreitol, 1 mM EDTA, 2 μg cathepsin L, and a varying concentration of the test compound was added 20 μM carbobenzoxy-L-phenylalanyl-L-arginine-4-methyl-coumaryl-7-amide (Z-Phe-Arg-MCA) to initiate the reaction at the final liquid volume of 200 μl. After 20 minutes of reaction at 30° C., 20 μl of 1M Tris-HCl (pH 8.0) was added so as to stop the reaction. The amount of liberated 4-methyl-7-aminocoumarin was determined with a fluorospectrometer at an excitation wavelength of 360 nm and a fluorescent emission wavelength of 450 nm. Using the value found without addition of the test drug as control and the value found without addition of the enzyme as blank, IC50 was determined in the same manner as above. E64 was used as a reference drug.

papain = biological target: T3, papain (Carica papaya, UniProt P00784); assay: Assay of Papain-Inhibitory Activity (casein degradation); details: casein substrate, pH 8.0, 60 min, 30° C.
T3 construct: purchased Sigma
T3 sequence (P00784 134-345): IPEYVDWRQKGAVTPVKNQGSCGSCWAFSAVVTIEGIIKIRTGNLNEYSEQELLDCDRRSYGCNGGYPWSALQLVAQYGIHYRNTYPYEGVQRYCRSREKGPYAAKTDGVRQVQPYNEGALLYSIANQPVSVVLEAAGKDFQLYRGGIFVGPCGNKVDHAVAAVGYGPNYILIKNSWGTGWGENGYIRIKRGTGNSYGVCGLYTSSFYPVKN
Description: as §1

T2 sequence (P07711 114-333, species assumed): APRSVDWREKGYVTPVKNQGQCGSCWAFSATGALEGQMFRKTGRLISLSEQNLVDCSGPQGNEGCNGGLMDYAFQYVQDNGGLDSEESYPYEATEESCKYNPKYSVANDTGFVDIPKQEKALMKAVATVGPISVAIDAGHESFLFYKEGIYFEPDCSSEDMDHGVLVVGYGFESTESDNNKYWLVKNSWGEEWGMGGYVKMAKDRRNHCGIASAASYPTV

Compound | IC50 (trypsin) [µM] | IC50 (μ-calpain) [µM] | also measured
CC(C)C[C@H](NC(=O)[C@H]1O[C@@H]1C(=O)O)C(=O)N1CCN(c2ccccc2Cl)CC1 [Example 27, (2s,3s)-3-[[[[(1s)-1-[[4-(2-chlorophenyl)-1-piperazinyl]carbonyl]3-methyl]butyl]amino]carbonyl]oxiranecarboxylic acid] | > 3000 |  | 
Cc1ccc(S(=O)(=O)N2CCN(C(=O)[C@H](CC(C)C)NC(=O)[C@H]3O[C@@H]3C(=O)O)CC2)cc1 [Example 26, (2s,3s)-3-[[[[(1s)-1-[[4-(4-methylphenylsulfonyl)-1-piperazinyl]carbonyl]-3-methyl]butyl]amino]carbonyl]oxiranecarboxylic acid] | > 3000 |  | 
O=C(O)[C@H]1O[C@@H]1C(=O)N[C@@H](Cc1ccccc1)C(=O)N1CCN(c2ccc(F)cc2)CC1 [Example 21, (2s,3s)-3-[[[[(1s)-1-[[4-(4-fluorophenyl)-1-piperazinyl]carbonyl]-2-phenyl]ethyl]amino]carbonyl]oxiranecarboxylic acid] | > 3000 |  | 
CC(C)C[C@H](NC(=O)[C@H]1O[C@@H]1C(=O)O)C(=O)N1CCN(c2ccc(F)cc2)CC1 [Example 23, (2s,3s)-3-[[[[(1s)-1-[[4-(4-fluorophenyl)-1-piperazinyl]carbonyl]-3-methyl]butyl]amino]carbonyl]oxiranecarboxylic acid] | > 3000 |  | 
O=C(O)[C@H]1O[C@@H]1C(=O)NC1(C(=O)N2CCN(c3ccc(F)cc3)CC2)CCCC1 [Example 41, (2s,3s)-3-[[[(1s)-1-[[4-(4-fluorophenyl)-1-piperazinyl]carbonyl]-1-cyclopentyl]amino]carbonyl]oxiranecarboxylic acid] |  | 145 | 
CC(C)C[C@H](NC(=O)[C@H]1O[C@@H]1C(=O)O)C(=O)NCCCCNC(=N)N [Example E-64, reference compound] | > 300 | 0.66 | IC50 (cathepsin L): 0.015 µM; IC50 (papain): 0.032 µM
CC(=O)NCSC[C@H](NC(=O)[C@H]1O[C@@H]1C(=O)O)C(=O)N1CCN(c2ccccc2Cl)CC1 [Example 38, (2s,3s)-3-[[[[(1s)-1-[[4-(2-chlorophenyl)-1-piperazinyl]carbonyl]-2-acetylaminomethylthio]ethyl]amino]carbonyl]oxiranecarboxylic acid] |  | 3.9 | 
O=C(O)[C@H]1O[C@@H]1C(=O)NCC(=O)N1CCN(c2ccccc2Cl)CC1 [Example 32, (2s,3s)-3-[[[[[4-(2-chlorophenyl)-1-piperazinyl]carbonyl]methyl]amino]carbonyl]oxiranecarboxylic acid] | > 3000 | 17.5 | IC50 (cathepsin L; read-out: Cathepsin L 50% Inhibitory concentration (IC50)): 37.6 µM
CC(=O)N[C@@H](CC(C)C)C(=O)N[C@@H](CC(C)C)C(=O)N[C@H](C=O)CCCNC(=N)N [Leupeptin, reference compound] | 7.4 |  | 
CC[C@H](C)[C@H](NC(=O)[C@H]1O[C@@H]1C(=O)O)C(=O)N1CCN(c2ccccc2Cl)CC1 [Example 34, (2s,3s)-3-[[[[(1s)-1-[[4-(2-chlorophenyl)-1-piperazinyl]carbonyl]-2-methyl]butyl]amino]carbonyl]oxiranecarboxylic acid] | > 3000 |  | IC50 (cathepsin L): 0.009 µM
